Laboratory results published in patent EP1222921B1, “Pharmaceutical compositions of tizoxanide and/or nitazoxanide” (Romark Laboratories, L.C., priority 1997, dated 1998).
≈ marks a conversion by molar mass, not a printed value. Entries after “also recorded” stand apart in the source; their conditions may differ. Like-named read-outs stand apart in the source and are kept apart here.

Experiments:
C. parvum oocysts [1] = test: Intact C. parvum oocyst assay (Example III), immunofluorescence; format: cell-based, Cryptosporidium parvum; details: for Parasite - Mean parasite count/field (12 fields analyzed) / %Inhib - Percent inhibitation of parasite infection: 48 hr.; for %Inhib - Percent inhibitation of parasite infection: listed as New NTZdes
Description: Each concentration of nitazoxanide and the media controls contained 0.025% DMSO as a constant. The experiment used a cell culture of MDBKF5D2 Cells grown in 7 mm chambers, and as Cryptosporidium parvum: GCH1 oocysts, 5 X 10^4 per well, and was conducted to compare paromomycin (positive control) against nitazoxanide (experimental drug). […] 5 x 104 C. parvum oocysts per well are incubated in the pre-mentioned concentrations of nitazoxanide at 37°C (8% CO2) on confluent MDBKF5D2 cell monolayers. The level of infection in each well was determined and computer analyzed by an immunofluorescence assay at 48 hours. […] (Medium control count - Drug test count)/(Medium control count)x 100 [formula] Conc. - µg/ml; Parasite - Mean parasite count/field (12 fields analyzed); %Inhib - Percent inhibitation of parasite infection; % Tox- Percent toxicity to cells by the drug.

[2] = system: M. intracellular ATCC 13950; test: MIC by standard agar dilution; format: cell-based, Mycobacterium intracellular; details: Mycobacterium, ATCC13950, 504 h, Middlebrook 7H11 agar, 3 weeks
[3] = system: RH strain of Toxoplasma gondii; test: Toxoplasma gondii growth in MRC5 fibroblast cultures, ELISA; format: cell-based
MRC5 fibroblasts = test: Toxicity on the cell monolayer in T. gondii cultures; details: 72 hours
Fasciola hepatica = test: In vitro culture of mature flukes
Description: The in vitro efficacy of nitazoxanide and desacetyl-nitazoxanide was tested against Fasciola hepatica. Mature F. hepatica were recovered from the bile ducts of 3 calf livers condemned due to fasciolosis at the Louisiana Veterinary Medical Diagnostic Laboratory at the Hardy's Meat […], Bunkie, LA. Flukes were washed in sterile saline for 1 hour and transferred to sterile saline or RPMI (pH 7.4) for an additional 3 hours. Flukes were then held in sterile RPMI-rabbit serum (50:50 v/v) or sterile RPMI (pH 7.4) overnight at 37°C with 5% CO2. In vitro culture (37°C, 5% CO2) was done according to a modification of the method of Ibarra and Jenkins ([…]. 70:655-661, 1984). […] Only flukes that had normal activity and morphology were used. […] Two control flukes were included in each replicate, […] and one in unmedicated culture media […]. Flukes were examined for the effects of drug treatment as evidenced by death, motility disturbances or morpholgic changes as compared to untreated control flukes, using a backlighted panel and a lighted 3X magnifying lens.

MDBKF5D2 cell monolayers [4] = test: Toxicity testing assay (Example III), MTS/PMS; format: cell-based
Description: 200µl of medium containing nitazoxanide solution at the pre-mentioned concentrations and the proper controls were introduced into two wells of a 96 well plate containing confluent MDBKFD2 cell monolayers and two wells without monolayers. […] The plate was returned to the incubator in the dark to develop for 2 hours. At 2 hours, 100 µl of each supernatant was transferred to a new microtiter plate and read in the ELISA reader at 490 nm. Results were recorded and analyzed. […] (OD medium - OD drug x 100)/(OD medium) [formula] […]

C. parvum oocysts [5] = test: Intact C. parvum oocyst assay (Example II), immunofluorescence; format: cell-based, Cryptosporidium parvum; details: 2 mg/ml; for inhibition at 2000 µg/mL: Cryptosporidium parvum, read-out: Percent Inhibition
Description: Nitazoxanide was dissolved in sterile dimethylsulfoxide (DMSO) and tested against intact C. parvum oocysts infected cell monolayers at concentrations of 100 µg/ml, 10 µg/ml/l µg/ml and 0.1 µg/ml. A second trail was performed which tested nitazoxanide at the additional concentrations of 20, 2, 0.2 and 0.02 µg/ml. These concentrations were achieved by serial dilutions with complete DMEM medium to yield a final DMSO concentration of 0.5%. The medium control also contacted 0.5% DMSO.
The experiment used a cell culture of MDBKF5D2 Cells grown in 7 mm chambers, and as Cryptosporidium parvum: GCH1 oocysts, 5 X 10^4 per well, and was conducted to compare paromomycin (positive control) against nitazoxanide (experimental drug). Materials included Immune Anti-Cryptosporidium parvum Sporozoite Rabbit Serum (0.1%) and Fluorescein-Conjugated Goat Anti-Rabbit Antibody (1%).
5 x 104 C. parvum oocysts per well were incubated in nitazoxanide (100, 20, 10, 2, 1, 0.2, 0.1 and 0.02 µg/ml) at 37°C (8% CO2) on confluent MDBKF5D2 cell monolayers. The level of infection in each well was determined and analyzed by an immunofluorescence assay at 24 to 48 hours. Percent Inhibition was calculated by subtracting the mean parasite count/10 field in the drug test wells from the mean parasite count/10 fields in the medium control (no drug), dividing by the medium control count, and then multiplying by 100. (Medium control count - Drug test count)/(Medium control count)x 100 [formula]

MDBKF5D2 cell monolayers [6] = format: cell-based; details: cattle, 2 mg/ml
Description: The drug was incubated on the monolayers at 37°C and 8% CO2. At 24 hours (trial 1) and 48 hours (trial 2), MTS (Owen's solution) the PMS were added to each well at concentrations of 333 µg/ml and 25 µM respectively. The plate was returned to the incubator in the dark to develop for two hours. At two hours, 100 µl of each supernatant was transferred to a new microtiter plate and read in the ELISA reader at 490nm. Results were recorded and analyzed. Percent toxicity was calculated by subtracting the mean optical density (OD) of the drug supernatants from the mean optical density (OD) of the medium control supernatants (no drug), dividing by the OD of the medium control and multiplying by 100. (OD medium - OD drug)/(OD medium)x 100 [formula]

[7] = 48 hr., Conc 0.01 µg/ml, 0.025% DMSO
[8] = 48 hr., Conc 0.1 µg/ml, 0.025% DMSO
[9] = 48 hr., Conc 1 µg/ml, 0.025% DMSO
[10] = 48 hr., Conc 10 µg/ml, 0.025% DMSO

## O=C(Nc1ncc([N+](=O)[O-])s1)c1ccccc1O [Tizoxanide, desacetyl-nitazoxanide]
C. parvum oocysts [1]; Conc 0.01 µg/ml, 0.025% DMSO
  Parasite - Mean parasite count/field (12 fields analyzed): 749.33
C. parvum oocysts [1]; Conc 0.1 µg/ml, 0.025% DMSO
  Parasite - Mean parasite count/field (12 fields analyzed): 649.86
C. parvum oocysts [1]; Conc 1 µg/ml, 0.025% DMSO
  Parasite - Mean parasite count/field (12 fields analyzed): 39.92
  %Inhib - Percent inhibitation of parasite infection: 93.65%
C. parvum oocysts [1]; Conc 10 µg/ml, 0.025% DMSO
  Parasite - Mean parasite count/field (12 fields analyzed): 13.75
  %Inhib - Percent inhibitation of parasite infection: 97.81%
C. parvum oocysts [1]; Cryptosporidium parvum, 48 h, Conc 0.01 µg/ml, 0.025% DMSO, read-out: %Inhib - Percent inhibitation of parasite infection
  inhibition at 0.01 µg/mL: ≤ 0%
C. parvum oocysts [1]; Cryptosporidium parvum, 48 h, Conc 0.1 µg/ml, 0.025% DMSO, read-out: %Inhib - Percent inhibitation of parasite infection
  inhibition at 0.1 µg/mL: ≤ 0%
C. parvum oocysts [1]; Cryptosporidium parvum, 48 h, Conc 1 µg/ml, 0.025% DMSO, read-out: %Inhib - Percent inhibitation of parasite infection
  inhibition at 1 µg/mL: 94%
C. parvum oocysts [1]; Cryptosporidium parvum, 48 h, Conc 10 µg/ml, 0.025% DMSO, read-out: %Inhib - Percent inhibitation of parasite infection
  inhibition at 10 µg/mL: 98%
[2]
  MIC: 4 µg/mL (≈ 15.1 µM)
[3]; 72 hours
  concentration with significant effect (inhibition): ≥ 0.6 mg/L
[3]; Toxoplasma gondii, MRC5, 72 hours, estimated from regression analysis, read-out: 50% inhibitory concentration
  IC50: 1.2 µg/mL (≈ 4.52 µM)
[3]; alteration of the parasitophorous vacuole, no marked alteration of the parasite itself
  concentrations at which a marked inhibition of Toxoplasma growth could be observed: approximately 1.2 mg/L
MRC5 fibroblasts
  concentrations with marked toxicity on the cell monolayer: ≥ 2500 ng/mL
Fasciola hepatica; 1 µg treatment, listed as D-NTZ
  effects on flukes (death, motility disturbances): Some slowing of activity was noted in the 1 µg group at 42-74 hours; also recorded: only 3 active and one moribund fluke remained alive at 91 hours; also recorded: at 115 hours only one sluggish fluke remained
Fasciola hepatica; 3 µg treatment, listed as D-NTZ
  effects on flukes (death, motility disturbances): Reduced activity in some individuals was seen by 24 hours in the 5 µg and 3 µg groups with a somewhat slower onset at 3 µg; also recorded: all were dead in the 3 and 5 µg treatment wells by 50 hours except one sluggish fluke in each group
Fasciola hepatica; 5 µg treatment, listed as D-NTZ
  effects on flukes (death, motility disturbances): Reduced activity in some individuals was seen by 24 hours; also recorded: all were dead in the 3 and 5 µg treatment wells by 50 hours except one sluggish fluke in each group
Fasciola hepatica; 10 µg treatment, listed as D-NTZ
  effects on flukes (death, motility disturbances): reduced activity was noted at 1, 3 and 4 hours; also recorded: all were moribund or dead by 7 hours
Fasciola hepatica; 25 µg treatment, listed as D-NTZ
  effects on flukes (death, motility disturbances): Four of 7 flukes in the 25 µg treatment were moribund, two were active, and one was sluggish within the first hour; also recorded: all were dead except two sluggish flukes by three hours; also recorded: only one sluggish fluke remained alive after four hours
Fasciola hepatica; 50 µg treatment
  effects on flukes (death, motility disturbances): moribund or dead within one hour
Fasciola hepatica; 100 µg treatment
  effects on flukes (death, motility disturbances): moribund or dead within one hour
Fasciola hepatica; in vitro medication rate 10µg
  time to rapid fluke death: 6 to 7 h
Fasciola hepatica; in vitro medication rate 25 µg
  time to rapid fluke death: ≤ 4 h
Fasciola hepatica; in vitro medication rates of >50 µg
  time to rapid fluke death: ≤ 1 h
MDBKF5D2 cell monolayers [4]; [7]
  %Tox - Percent toxicity to cells by the drug: 4.36%
  Score (cytotoxicity score): 0 (0.5% toxicity = 0)
MDBKF5D2 cell monolayers [4]; 48 hr., Conc 0.01 µg/ml, 0.025% DMSO, OD at 490 nm
  Tox/OD: 1.721
MDBKF5D2 cell monolayers [4]; [8]
  %Tox - Percent toxicity to cells by the drug: 16.29%
  Score (cytotoxicity score): 1 (6-25% toxicity = 1)
MDBKF5D2 cell monolayers [4]; 48 hr., Conc 0.1 µg/ml, 0.025% DMSO, OD at 490 nm
  Tox/OD: 1.506
MDBKF5D2 cell monolayers [4]; [9]
  %Tox - Percent toxicity to cells by the drug: 4.97%
  Score (cytotoxicity score): 0 (0.5% toxicity = 0)
MDBKF5D2 cell monolayers [4]; 48 hr., Conc 1 µg/ml, 0.025% DMSO, OD at 490 nm
  Tox/OD: 1.710
MDBKF5D2 cell monolayers [4]; [10]
  %Tox - Percent toxicity to cells by the drug: 81.27%
  Score (cytotoxicity score): 4 (76-100% toxicity =- 4)
MDBKF5D2 cell monolayers [4]; 48 hr., Conc 10 µg/ml, 0.025% DMSO, OD at 490 nm
  Tox/OD: .337

## NC[C@@H]1O[C@H](O[C@H]2[C@@H](O)[C@H](O[C@@H]3[C@@H](O)[C@H](N)C[C@H](N)[C@H]3O[C@H]3O[C@H](CO)[C@@H](O)[C@H](O)[C@H]3N)O[C@@H]2CO)[C@H](N)[C@@H](O)[C@@H]1O [Paromomycin, reference compound]
C. parvum oocysts [1]; Conc 2000 µg/ml, aqueous media
  Parasite - Mean parasite count/field (12 fields analyzed): 115.75
C. parvum oocysts [1]; Cryptosporidium parvum, 48 h, Conc 2000 µg/ml, aqueous media, read-out: %Inhib - Percent inhibitation of parasite infection
  inhibition at 2000 µg/mL: 83%
C. parvum oocysts [1]; Cryptosporidium parvum, concentration of 2,000 µg/ml, positive control, Examples II and III, read-out: inhibition (range over the experiments)
  inhibition at 2000 µg/mL: 51 to 83%
C. parvum oocysts [1]; same experimental condition, positive control
  times less effective (than nitazoxanide): 2,000 times
C. parvum oocysts [5]; Trial 1: 24 hrs
  inhibition at 2000 µg/mL: 51%
  Mean (+ SD) Parasite Count/10 Fields: 482(±47.1)
C. parvum oocysts [5]; Trial 2: 48 hrs
  inhibition at 2000 µg/mL: 74%
  Mean (+ SD) Parasite Count/10 Fields: 580(+33.42)
MDBKF5D2 cell monolayers [6]; 24 h
  Percent Toxicity: 23.8%
MDBKF5D2 cell monolayers [6]; 48 h
  Percent Toxicity: 40.8%
MDBKF5D2 cell monolayers [4]; cattle, 48 h, 2000 µg/ml
  %Tox - Percent toxicity to cells by the drug: 39.79%
  Tox/OD: 1.219
